Data on 29 compounds can be found in patent publication US6756367B2, “Benzo-oxadiazoles, -thiadiazoles and -1,4-diazines, pharmaceutical compositions containing them and a process for preparing them” (Novartis AG, priority 1998, dated 2004).

Where a name gives a salt, the structure may show the parent alone.

One series concerns mouse. Briefly: mouse elevated plus-maze (anxiolytic activity). The class given is in vivo. The source says:
For example the anxiolytic activity of the agents of the invention could be confirmed in the mouse elevated plus-maze [see for example Rodgers R. J., Behavioural Pharmacology 8: 477-496 (1997) where the relevance of the elevated plus-maze is discussed on p. 486; for the method, see Rodgers R. J. et al. Ethology and Psychopharmacology (Eds S J Cooper and C A Hendrie), pp 9-44 (1994), J. Wiley, Chichester]. In this test, the agents of the invention show anxiolytic-like effects on administration of 0.1 to 30 mg/kg p.o.

In a further series the target is T1, human recombinant CRF1 (Homo sapiens, UniProt P34998).
T1 construct: expressed in transfected cells
T1 sequence (P34998 24-415): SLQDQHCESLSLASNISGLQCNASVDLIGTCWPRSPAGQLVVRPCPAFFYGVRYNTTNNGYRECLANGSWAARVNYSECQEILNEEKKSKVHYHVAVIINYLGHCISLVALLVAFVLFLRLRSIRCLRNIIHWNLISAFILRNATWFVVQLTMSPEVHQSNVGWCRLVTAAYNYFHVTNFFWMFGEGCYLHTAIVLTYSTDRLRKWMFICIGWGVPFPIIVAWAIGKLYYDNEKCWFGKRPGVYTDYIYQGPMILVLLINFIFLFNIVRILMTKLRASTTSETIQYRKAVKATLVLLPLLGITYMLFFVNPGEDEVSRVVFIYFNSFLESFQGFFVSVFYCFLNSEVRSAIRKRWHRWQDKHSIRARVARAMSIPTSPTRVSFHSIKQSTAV
Briefly: CRF-stimulated cyclic AMP accumulation in CHO cells expressing human recombinant CRF1 (antagonism, KB from curve shift). The class given is cell-based. The note with it: cAMP, shift of CRF curve with antagonist 10 μM. On the procedure: In particular the agents of the invention bind to CRF receptors.
Chinese hamster ovary (CHO) cells expressing human recombinant CRF1 (Chen et al., Proc Natl Acad Sci USA 90, 8967-8971, 1993) are propagated in Dulbecco's modified Eagle medium supplemented with 10% foetal calf serum, non-essential aminoacids, 100 U/ml penicillin, 100 mg/l streptomycin and 1 g/l geneticin (G418). For cyclic AMP determinations, cells are grown to confluence in 24-multiwell plates. Stimulation of cyclic AMP accumulation by CRF (human/rat form) is measured in intact cells, using the [^3H]adenine labelling technique, as described previously (Schoeffter et al., Neuropharmacology 36, 429-437, 1997). Concentration-response curves for CRF are constructed in the presence of putative antagonists (10 μM) or vehicle (dimethyl sulfoxide 1% vol). KB values are calculated from the rightward shifts of the control curve, according to the formula: KB=[antagonist, M]/concentration-ratio-1), where the concentration-ratio designates the ratio of CRF EC50 value in the presence/CRF EC50 value in the absence, of antagonist [Furchgott, In: catecholamines (edited by Blaschko H and Muscholl E) pp. 283-335. Springer, Berlin, 1972].

Consider `CCCN(CC)c1nc(C)nc(Nc2c(C)cc(C)c3nccnc23)c1C`, for which the melting point was 109 to 110 °C. The compound `CCCN(CCC)c1nc(C)nc(Nc2c(Cl)cc(C)c3nsnc23)c1C` showed a melting point of 112 to 114 °C. Still for that read-out and setting: the value for `Cc1nc(Nc2c(Cl)cc(Cl)c3nsnc23)c(C)c(N(C)Cc2ccccc2)n1` was 138 °C; that for `C=CCN(CC=C)c1nc(C)nc(Nc2c(Cl)cc(Cl)c3nsnc23)c1C` was 112 °C. As to `CCCN(CCC)c1nc(C)nc(Nc2c(C)cc(C)c3nccnc23)c1C`, the melting point fell in the range of 94 to 96 °C. `CCCCN(CC)c1nc(C)nc(Nc2c(Cl)cc(Cl)c3nsnc23)c1C`: the melting point was found to be 101 °C.

On to `CCCN(CCC)c1nc(C)nc(Nc2c(C)cc(C)c3nsnc23)c1Cl`, for which the melting point was in the range of 106 to 108 °C. Still for that read-out and setting: under `CCN(C)c1nc(C)nc(Nc2c(Cl)cc(Cl)c3nsnc23)c1C` stands 116 °C; under `CCCN(CCC)c1nc(C)nc(Nc2c(C)cc(Cl)c3nsnc23)c1C`, 102 to 104 °C.

`CCCN(CC)c1nc(C)nc(Nc2c(Cl)cc(Cl)c3nsnc23)c1C`: the melting point amounted to 107 °C. Take `Cc1nc(NCc2ccccc2)c(C)c(Nc2c(Cl)cc(Cl)c3nsnc23)n1`: the melting point was found to be 126 °C.

Turning to `CCCN(CCC)c1nc(C)nc(Nc2c(C)ccc3nsnc23)c1C`, the melting point was in the range of 95 to 98 °C. Still for that read-out and setting: under `CCCCN(C)c1nc(C)nc(Nc2c(Cl)cc(Cl)c3nsnc23)c1C` stands 105 °C; under `CCCN(CCC)c1nc(C)nc(Nc2c(Cl)cc(C)c3nccnc23)c1C`, 107 to 109 °C. Same read-out and setting: under `CCCN(CCC)c1cc(Nc2c(C)cc(C)c3nsnc23)nc(C)n1` (as salt: fumarate) stands 177 to 179 °C; under `CCCCN(CC)c1nc(C)nc(Nc2c(C)cc(C)c3nccnc23)c1C`, 106 to 107 °C; under `CCC(C)Nc1nc(C)nc(Nc2c(C)cc(C)c3nsnc23)c1C` (centres unmarked), 88 °C. `CCCN(CCC)c1nc(C)nc(Nc2c(C)cc(C)c3nsnc23)c1C#N` yielded a melting point of 171 to 173 °C.

`CCCCN(CC)c1nc(C)nc(Nc2c(C)cc(C)c3nsnc23)c1C`: the melting point is 83 to 84 °C. The same measure, in the same setting: under `CCCCN(CC)c1nc(C)nc(Nc2c(Cl)cc(Cl)c3nccnc23)c1C` stands 117 to 119 °C. For `CCC(CC)Nc1nc(C)nc(Nc2c(C)cc(C)c3nsnc23)c1C`, the melting point is 113 to 115 °C. For `CCCN(CCC)c1nc(C)nc(Nc2c(Cl)ccc3nsnc23)c1C`, the melting point lay within 77 to 80 °C. Consider `CCN(CC)c1nc(C)nc(Nc2c(Cl)cc(Cl)c3nsnc23)c1C` (as salt: fumarate), for which the melting point fell in the range of 189 to 193 °C.

Turning to `CCCN(CC)c1nc(C)nc(Nc2c(Cl)cc(Cl)c3nccnc23)c1C`, the melting point is 120 to 123 °C.

Consider `CCCN(CC)c1nc(C)nc(Nc2c(C)cc(C)c3nsnc23)c1C`, for which the melting point lay in the range of 101 to 102 °C. Still for that read-out and setting: under `CCCN(CCC)c1nc(C)nc(Nc2c(Cl)cc(Cl)c3nccnc23)c1C` stands 126 to 128 °C.

For the compound `CCCN(CCC)c1nc(C)nc(Nc2c(C)cc(C)c3nsnc23)c1C` [Example 1, 5,7-dimethyl-4-[2,5-dimethyl-6-(di-n-propyl)-amino-pyrimidin-4-yl]-amino-2,1,3-benzothiadiazole], the “parameters related to motor stimulation in the elevated plus-maze” value in the series on mouse (0.1 to 10 mg/kg p.o., in contrast to the standard chlordiazepoxide) was “not affected”. Also, in the series with mouse (doses of 0.1 to 10 mg/kg p.o.), the “effect on anxiety-related behavioural parameters in the elevated plus-maze” value is “significantly affect the anxiety-related behavioural parameters”. In addition, the “dose of maximum effect on anxiety-related behavioural parameters” value in the series with mouse (p.o., elevated plus-maze) came to 3 mg/kg. For the same compound, the Kb at human recombinant CRF1 was found to be 36 nM. With `CCCN(CCC)c1nc(C)nc(Nc2c(Cl)cc(Cl)c3nsnc23)c1C`, the melting point was 118 to 121 °C. The same measure, in the same setting: under `CCCCN(CCCC)c1nc(C)nc(Nc2c(Cl)cc(Cl)c3nsnc23)c1C` stands 56 °C.
